# Experimental data taken from US20210078917A1, “FUNGICIDAL FERTILIZER COMPOSITION COMPRISING POTASSIUM PHOSPHITE AND GAMMA-POLY-GLUTAMIC ACID” (JIANGSU HUIFENG BIO AGRICULTURE CO., LTD., priority 2018, published 2021).
# Tests used:
# [1] = system: tomato; test: Yield increase and quality test of tomato; type: in vivo; details: 60 g active ingredient per mu
# Experimental: […]. This fertilizer was applied on the basis of conventional fertilization in each treatment area. Fertilization method: The fertilizer was applied by spraying during the seedling stage of tomato. The yield, quality and control effect on disease on tomato were determined.
# [2] = system: stem rot of peanut; test: Disease control test of peanut, stem rot; type: in vivo
# Experimental: (§1) […]. Fertilization method: The fertilizer was applied three times by spraying during the flowering and fruiting period. The yield, quality and control effect on disease on peanut were determined.
# [3] = system: pepper; test: Yield increase and quality test of pepper; type: in vivo; details: 40 g active ingredient per mu
# Experimental: This fertilizer was applied on the basis of conventional fertilization in each treatment area. Fertilization method: The fertilizer was applied by spraying during the seedling stage of pepper. The yield, quality and control effect on disease on pepper were determined.
# [4] = system: Disease (black fruit); test: Disease control test of Chinese wolfberry, black fruit; type: in vivo, Chinese wolfberry "Ningqi No. 7"
# Experimental: The test was carried out in a Chinese wolfberry planting test plot in Koluke Town, Delingha City, Qinghai Province. Chinese wolfberry plants were all three-year-old seedlings of variety “Ningqi No. 7” at a density of 270 plants/667 m^2. This experiment was designed such that different plots were arranged in order. […] Fertilization method: It was applied together with other base fertilizers, by laying the fertilizer at the bottom of the planting pit, where the depth of the trench was 70 cm, the diameter of the pit was 80 cm, and the soil was mixed in and applied at the bottom when applying fertilizer. The yield, quality and control effect on disease on fresh Chinese wolfberry fruit were determined.
# [5] = system: Disease (rot); test: Disease control test of tomato, rot; type: in vivo; details: 60 g active ingredient per mu
# Experimental: This fertilizer was applied on the basis of conventional fertilization in each treatment area. Fertilization method: The fertilizer was applied by spraying during the seedling stage of tomato. The yield, quality and control effect on disease on tomato were determined.
# [6] = system: potatoes; test: Yield increase test of potatoes (field); type: in vivo, potato
# Experimental: (§2) (1) Yield increase and disease control test of potatoes with fungicidal fertilizer composition of the present invention. This test was conducted in 2017 in Anding District, Dingxi City, Gansu Province. This area is a typical semi-arid rain-fed agricultural area. The soil type is loessial soil, with deep soil layers and uniform soil fertility. The previous crop is rape. The fertilizer of the present invention was totally applied as a base fertilizer at a time. […] Ridging after flat planting in wide and narrow rows was adopted. The wide row spacing was 60 cm, the narrow row spacing was 30 cm, the plant spacing was 30 cm, the sowing depth was 15 cm, and the plant density was 58,000 plants·hm^−2. Other field management was the same as that in large area of field. The number of large- and medium-sized potatoes ([…]) per plant was randomly determined, and the relative increase rate of large- and medium-sized potatoes was determined. The yield per mu and the relative increase rate of yield were determined. The crude starch content and increase rate of crude starch content were determined. The control effect on root rot of potatoes was also determined.
# [7] = system: soybean; test: Yield increase test of soybean; type: in vivo; details: for Yield (667 M^2): per 667 M^2
# Experimental: Fertilization method: The fertilizer was co-applied with other fertilizers. The yield, quality and control effect on disease on soybean were determined.
# [8] = system: root rot of potatoes; test: Disease control test of potatoes (field), root rot; type: in vivo, potato
# Experimental: as §2
# [9] = system: peanut; test: Yield increase and quality test of peanut; type: in vivo
# Experimental: as §1
# [10] = amount 50 g active ingredient/mu
# [11] = amount 100 g active ingredient/mu
# [12] = amount 400 g active ingredient/mu
substance,measurement,setting,value
γ-poly-glutamic acid,Quality: Amino acid,[1],610.17 mg/100 kg
same,Quality: Vitamin C,[1],17.32 mg/100 g
same,Yield: Total yield,[1],3519 kg/mu
same,Yield: Weight of single fruit,[1],21.7 g
same,Disease (Stem rot): Control effect,"[2]; 30 g/mu, 10 days after application",20.41%
same,Disease (Stem rot): Control effect,"[2]; 30 g/mu, 30 days after application",6.21%
same,Disease (Stem rot): Control effect,"[2]; 60 g/mu, 10 days after application",31.29%
same,Disease (Stem rot): Control effect,"[2]; 60 g/mu, 30 days after application",11.58%
same,Quality: Vitamin C,[3],26.8 mg/100 g
same,Yield: Total yield,[3],3382 kg/mu
same,Yield: Weight of single fruit,[3],49.2 g
same,Disease (black fruit): Control effect,"[4]; 50 g/mu, 10 days after application",17.56%
same,Disease (black fruit): Control effect,"[4]; 50 g/mu, 30 days after application",10.99%
same,Disease (black fruit): Control effect,"[4]; 100 g/mu, 10 days after application",29.17%
same,Disease (black fruit): Control effect,"[4]; 100 g/mu, 30 days after application",21.35%
same,Disease (rot): Control effect,[5]; 12 days after application,21.35%
same,Disease (rot): Control effect,[5]; 45 days after application,7.26%
same,Crude starch content,[6]; [10],16.1%
same,Fresh weight of large- and medium-sized potatoes,[6]; [10],481.3 g/plant
same,Increase rate of crude starch content,[6]; [10],1.9%
same,Increase rate of large- and medium-sized potatoes,[6]; [10],6.5%
same,Increase rate of yield,[6]; [10],4.4%
same,Yield,[6]; [10],1343 kg/mu
same,Crude starch content,[6]; [11],16.4%
same,Fresh weight of large- and medium-sized potatoes,[6]; [11],492.6 g/plant
same,Increase rate of crude starch content,[6]; [11],3.8%
same,Increase rate of large- and medium-sized potatoes,[6]; [11],9.0%
same,Increase rate of yield,[6]; [11],7.5%
same,Yield,[6]; [11],1383 kg/mu
same,Crude starch content,[6]; [12],17.1%
same,Fresh weight of large- and medium-sized potatoes,[6]; [12],499.3 g/plant
same,Increase rate of crude starch content,[6]; [12],8.2%
same,Increase rate of large- and medium-sized potatoes,[6]; [12],10.5%
same,Increase rate of yield,[6]; [12],10.6%
same,Yield,[6]; [12],1422 kg/mu
same,Branches,[7]; 15 g/mu,17.5 count
same,Increase rate (branches),[7]; 15 g/mu,1.2%
same,Increase rate (weight per 100 grains),[7]; 15 g/mu,2.8%
same,Increase rate (yield),[7]; 15 g/mu,2.9%
same,Weight per 100 grains,[7]; 15 g/mu,25.43 g
same,Yield (667 M^2),[7]; 15 g/mu,181.7
same,Branches,[7]; 50 g/mu,17.8 count
same,Increase rate (branches),[7]; 50 g/mu,2.7%
same,Increase rate (weight per 100 grains),[7]; 50 g/mu,3.5%
same,Increase rate (yield),[7]; 50 g/mu,4.5%
same,Weight per 100 grains,[7]; 50 g/mu,25.61 g
same,Yield (667 M^2),[7]; 50 g/mu,184.5
same,Branches,[7]; 100 g/mu,18.0 count
same,Increase rate (branches),[7]; 100 g/mu,4.1%
same,Increase rate (weight per 100 grains),[7]; 100 g/mu,4.1%
same,Increase rate (yield),[7]; 100 g/mu,5.7%
same,Weight per 100 grains,[7]; 100 g/mu,25.75 g
same,Yield (667 M^2),[7]; 100 g/mu,186.7
same,Branches,[7]; 300 g/mu,18.1 count
same,Increase rate (branches),[7]; 300 g/mu,4.6%
same,Increase rate (weight per 100 grains),[7]; 300 g/mu,5.3%
same,Increase rate (yield),[7]; 300 g/mu,7.3%
same,Weight per 100 grains,[7]; 300 g/mu,26.05 g
same,Yield (667 M^2),[7]; 300 g/mu,189.5
same,Branches,[7]; 600 g/mu,18.3 count
same,Increase rate (branches),[7]; 600 g/mu,5.7%
same,Increase rate (weight per 100 grains),[7]; 600 g/mu,6.8%
same,Increase rate (yield),[7]; 600 g/mu,10.5%
same,Weight per 100 grains,[7]; 600 g/mu,26.42 g
same,Yield (667 M^2),[7]; 600 g/mu,195.1
same,Control effect,"[8]; amount 50 g active ingredient/mu, 10 days after application",9.87%
same,Control effect,"[8]; amount 50 g active ingredient/mu, 30 days after application",4.34%
same,Control effect,"[8]; amount 100 g active ingredient/mu, 10 days after application",17.34%
same,Control effect,"[8]; amount 100 g active ingredient/mu, 30 days after application",14.47%
same,Control effect,"[8]; amount 400 g active ingredient/mu, 10 days after application",32.51%
same,Control effect,"[8]; amount 400 g active ingredient/mu, 30 days after application",25.37%
same,Quality: Linoleic acid,[9]; 30 g/mu,44.52%
same,Quality: Protein,[9]; 30 g/mu,22.91%
same,Yield,[9]; 30 g/mu,285.3 kg/mu
same,Yield: Seed yield,[9]; 30 g/mu,66.7%
same,Yield: Weight per 100 fruits,[9]; 30 g/mu,113.4 g
same,Quality: Linoleic acid,[9]; 60 g/mu,45.36%
same,Quality: Protein,[9]; 60 g/mu,24.31%
same,Yield,[9]; 60 g/mu,310.8 kg/mu
same,Yield: Seed yield,[9]; 60 g/mu,69.1%
same,Yield: Weight per 100 fruits,[9]; 60 g/mu,126.7 g
